Experimental data reported in publication PMC9037614 (RSC Advances, 2021).

Tests used:
Assay in all cases: cells
Type in all cases: cell-based
[1] = system: human non-small-cell lung cancer A549 cells; conditions: A549, read-out: IC50 against A549
[2] = system: human non-small-cell lung cancer H460 cells; conditions: NCI-H460, read-out: IC50 against H460
[3] = system: human bronchial epithelial cell line HBE; conditions: for IC50: Homo sapiens, HBE, read-out: IC50 against HBE

| SMILES | IC50 [1] | IC50 [2] | IC50 [3] | selectivity towards cancerous cell lines over non-cancerous cell line ([3]; A549/H460 versus HBE, from IC50 values) |
| --- | --- | --- | --- | --- |
| CCN1C[C@]2(COC)CC[C@H](O)[C@@]34C5C[C@@H]6[C@@H](OC)C[C@](O)(C(CC23)C14)C5[C@H]6OC(C)=O (stereo partly shown) [Compound 30, condelphine] | 16.4 ± 2.38 µM | 16 ± 1.15 µM | 31.4 ± 6 µM |  |
| CCN1C[C@]2(COC)CC[C@H](OC)[C@]34C1C([C@H](OC)[C@H]23)[C@]1(OC(C)=O)[C@H]2[C@@H](OC(=O)c3ccccc3)[C@](O)(C[C@H]24)[C@@H](OC)[C@@H]1O [Compound 34, deoxyaconitine] | 14.9 ± 4.02 µM | 14.6 ± 1.32 µM | 31 ± 4.8 µM |  |
| COC[C@@]12CC[C@H](OC)[C@]34C(C([C@H](OC)[C@H]13)[C@]1(OC(C)=O)[C@H]3[C@@H](OC(=O)c5ccccc5)[C@](O)(C[C@H]34)[C@@H](OC)[C@@H]1O)N(C)C2 [Compound 33, hypaconitine] | 14.3 ± 1.79 µM | 16.5 ± 2.22 µM | 32.7 ± 4.56 µM |  |
| CCN1C[C@]2(C)CC[C@H](O)[C@@]34C5C[C@@H]6[C@@H](OC)C[C@@](O)(C5[C@H]6O)[C@@H](CC23)C14 (stereo partly shown) [Compound 9, karacoline] | 8.28 ± 0.41 µM | 9.69 ± 0.4 µM | 49.7 ± 8.11 µM | higher selectivity |
| O=c1[nH]cc(F)c(=O)[nH]1 [Compound 5-FU, 5-fluorouracil, reference compound] | 12.5 ± 8.81 µM | 6.16 ± 1.8 µM | 8.93 ± 6.05 µM |  |
| C=C1[C@H]2C[C@@]3([C@@H]1O)[C@@H](CC2=O)[C@]12[C@@H]4C[C@H]3[C@H]1N(CC)C[C@]4(C)CC[C@@H]2O [Compound 5, songorine] | 21.2 ± 0.84 µM | 25.1 ± 0.59 µM | 32.4 ± 2.62 µM |  |
